Drawing on PubChem BioAssay AID1902 (Broad Institute, 2009), this text covers EC50 for 92 molecules.

For this assay, the target named is S. pyogenes SKKanGAS, kanamycin survival, BacTiterGlo, 6 h. Briefly: SKKanGAS survival reduction under kanamycin, dose response, streptokinase promoter inhibitor project, SKKanGAS strain, luminescence, dose confirmation (AID 1902).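 Further: lower survival reflects blocked streptokinase promoter driving kanamycin resistance gene.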

The source made the active and inactive calls.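 How the source made its calls: active means EC50 no more than a set limit of log units above the highest dose; inactive means the rest.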

As a reminder, the EC50 is the concentration that produces a half-maximal response. Consider `CCC(=O)NC(=S)Nc1ccc(NC(=S)NC(=O)c2ccccc2)cc1`, for which the concentration for a half-maximal effect (EC50) is 0.805 µM. Next, `Cc1cccc(C)c1OCC(=O)NNC(=S)NC(=O)C1CC1`: 0.304 µM; `Cc1nnc(SCC2=C(C(=O)O)N3C(=O)C(NC(=O)c4cccc(F)c4F)C3SC2)s1` (configuration not stated): 0.269 µM.

For `CC(C)Cn1c2c(c(O)c(C(=O)Nc3ncccc3O)c1=O)CCCC2`, the half-maximal effective concentration (EC50) is 2.35 µM. Next, `COc1ccc([C@H]2Oc3cc(O)cc(O)c3C(=O)C2[C@@H]2C(=O)c3c(O)cc(O)cc3O[C@@H]2c2ccc(OC)cc2)cc1` (some centres not stated): 1.61 µM. For `COc1ccc(OC)c(/C=N/n2c(-c3n[nH]c4c3CCC4)n[nH]c2=S)c1`, the EC50 is > 15 µM (inactive). Next, `O=C(NC1=NCCS1)c1cc(-c2ccccc2)nn1-c1ccccc1`: 6.06 µM; `CC(C)C(=O)Nc1ccc(C(=O)NNC(=S)NC(=O)c2cccs2)cc1`: 6.57 µM. As for `COc1ccc(C(=O)NC2CCCCCC2)cc1S(=O)(=O)N1CCOCC1`, the EC50 was > 15 µM (inactive). Next, `CC(C)(C)C(=O)N1N=C(c2ccc(NS(C)(=O)=O)cc2)CC1c1cccs1` (configuration not stated): 7.49 µM.

Consider `O=C(Cc1csc(NC(=O)Nc2cccc(Cl)c2)n1)NCc1ccccn1`, for which the concentration giving a half-maximal response (EC50) is 6.87 µM. Next, `CC(C)(C)[C@H]1CCC(=O)N([C@H](CSc2ccccc2)Cc2ccccc2)CC1`: 3.51 µM; `COCCCNC(=S)NNC(=S)Nc1cccc(Cl)c1`: > 15 µM (inactive).

Consider `Fc1ccc2nc(Nc3nc4cc5c(cc4s3)OCO5)sc2c1`, for which the EC50 is 2.63 µM. Next, `CNC1=C(N(C(C)=O)c2ccc(Br)cc2)C(=O)c2ccccc2C1=O`: 6.36 µM; `COC(=O)c1cc(-c2ccc(OC)cc2F)nc2nc(SC)[nH]c(=O)c12`: 2.57 µM.

`O=C(Nc1ccccc1)c1nnsc1S(=O)c1ccc(Cl)cc1` (configuration not stated): the concentration for a half-maximal effect (EC50) is 1.34 µM. As to `O=c1[nH]c2cc3c(cc2cc1CN(CCc1ccccc1)Cc1nnnn1CC1CCCO1)OCO3` (configuration not stated), the EC50 was > 15 µM (inactive). Next, `CCc1ccc(/C=C2\SC(=S)N(CCCC(=O)Nc3ccccc3C(=O)O)C2=O)cc1`: 3.35 µM; `c1ccc(-c2onc(-c3ccco3)c2-c2ccc3[nH]ccc3c2)cc1`: 4.2 µM.

`CCOC(=O)c1cccnc1SCC(=O)NC(C)CC` (configuration not stated): the EC50 was > 15 µM (inactive). Next, `O=C(CSc1nnc(NC(=O)C2CC(=O)N(c3ccc(F)cc3)C2)s1)NCc1ccco1` (configuration not stated): > 15 µM (inactive); `COc1ccccc1N1CCN(Cc2nc(N)nc(Nc3ccc(C)c(Cl)c3)n2)CC1`: 7.99 µM. Next, `O=S(=O)(Nc1c(S(=O)(=O)c2ccccc2)c2nc3ccccc3nc2n1C1CCCCC1)c1ccccc1`: 2.71 µM. Regarding `CCOc1ccc(/C=N/NC(=O)Cc2csc(Nc3cccc(C(F)(F)F)c3)n2)cc1`, the EC50 was 6.35 µM.

In the case of `O=C(NC(=S)NNC(=O)[C@H]1C[C@@H]1c1ccccc1)c1cccc(F)c1`, the EC50 was 0.756 µM. Next, `CCn1c(=O)c(C(=O)NNC(=O)c2ccc(Cl)cc2Cl)c(O)c2ccccc21`: 1.99 µM; `CC(C)=CCc1cc([C@@H]2CC(=O)c3ccc(O)c(CC=C(C)C)c3O2)ccc1O`: 3.63 µM; `Cc1cc(C(=O)OC(C(=O)Nc2cccc(C(F)(F)F)c2)c2ccccc2)c(C)o1` (configuration not stated): 10.1 µM. Next, `O=C(Nc1cccc(-c2ccc(N3CCOCC3)nn2)c1)c1ccccc1Cl`: > 15 µM (inactive); `COc1ccc(-c2[nH]ncc2N=Nc2cc(C)cc(C)c2)cc1`: 4.27 µM. Next, `Cc1ccc(C)c(N2CCN(C(=O)CCCCCn3c(=S)[nH]c4ccc(N5CCOCC5)cc4c3=O)CC2)c1`: 7.93 µM. Turning to `Cn1ncc2c(Nc3ccc(Cl)c(Cl)c3)ncnc21`, the 50% effective concentration (EC50) was 4.82 µM. Next, `CCOc1ccc2c(c1)c1nnc(SCC(=O)N3CCC(C)CC3)nc1n2C`: 15.6 µM; `CCOc1ccc(Nc2nc(N3CCCCC3)nc(N3CCCCC3)n2)cc1`: 0.65 µM; `O=C(/C=C/c1cccc(Cl)c1)c1ccc([N+](=O)[O-])o1`: 2.23 µM. Next, `CC(C)(C)c1cc(Cl)c(O)c(NC(=S)NC(=O)c2cccnc2)c1`: 0.346 µM; `Cc1cc(C)c2nc(NNC(=O)c3ccc(S(=O)(=O)N4CCc5ccccc5C4)cc3)sc2c1`: 0.538 µM; `Cn1c(-c2c(N)n(C3CCCC3)c3nc4ccccc4nc23)nc2ccccc21`: 1.12 µM.

In the case of `CS(=O)(=O)c1ccc([C@@H](O)[C@@H](CO)NC(=O)C(Cl)Cl)cc1`, the concentration for a half-maximal effect (EC50) is 0.74 µM. As for `O=C(NC(=S)N1CCN(C(c2ccccc2)c2ccccc2)CC1)c1ccc(S(=O)(=O)N2CCOCC2)cc1`, the concentration giving a half-maximal response (EC50) was 2.56 µM. Next, `COc1cc(/C=C/C(=O)c2ccc([N+](=O)[O-])o2)ccc1O`: 2.98 µM; `CCOc1ccc(C(=O)N/N=C(\c2ccccc2)c2ccccn2)cc1`: 5.71 µM. Next, `Cc1ccc(C(=O)CC(=O)c2ccccc2C)c(O)c1`: 5.18 µM. Regarding `CCSc1nsc(NC(=O)Nc2cccc(F)c2)n1`, the concentration giving a half-maximal response (EC50) was 7.63 µM. Next, `O=C(Oc1ccc(NC2=C(Cl)C(=O)c3ccccc3C2=O)cc1)c1ccc([N+](=O)[O-])cc1`: 7.48 µM; `COc1ccc(/C=c2\s/c(=C/C(=O)c3ccc(C)cc3)[nH]c2=O)cc1OC`: 9.28 µM.

Turning to `COc1ccc(C(=O)NC(=S)NNC(=O)[C@H]2C[C@@H]2c2ccccc2)cc1OC`, the EC50 is 0.914 µM. Next, `COc1ccc(-c2csc(NC(=S)NC(=O)c3cccs3)n2)cc1OC`: 13.9 µM; `Cc1ccc(F)c(NC(=O)/C(C#N)=C(\O)c2ccc(C(C)(C)C)cc2)c1`: 6.33 µM; `Cc1cc(C(=O)N/N=C/c2cc(Cl)cc([N+](=O)[O-])c2O)c2ccccc2n1`: 2.61 µM. Next, `O=C(/C=C/c1ccccc1Cl)c1ccccc(=O)c1O`: 0.824 µM; `COc1ccccc1N1CC(C(=O)Nc2nnc(SCC(=O)N3CCCC3)s2)CC1=O` (configuration not stated): > 15 µM (inactive); `Cc1cc([N+](=O)[O-])cc(/C=N/n2c(C)nc3ccccc3c2=O)c1O`: 4.07 µM. Next, `COCCn1c(N)c(C(=O)Nc2sc3c(c2C(=O)OC)CCCC3)c2nc3ccccc3nc21`: 4.57 µM; `CN=C1S/C(=C\c2ccc(N3CCOCC3)c(F)c2)C(=O)N1C`: 4.94 µM; `CCN(CC)C(=S)SCC(=O)Nc1nc(-c2ccccc2)c(-c2ccccc2)o1`: 1.26 µM. Regarding `O=C(NC(NC(=S)Nc1cccc(Cl)c1)C(Cl)(Cl)Cl)OCc1ccccc1` (configuration not stated), the 50% effective concentration (EC50) is 1.78 µM. Consider `CCCCn1c(SCC(=O)c2ccccc2)nc2c1c(=O)[nH]c(=O)n2C`, for which the EC50 is 3.43 µM. With `CCC[C@@H]1C[C@@]1(CCC)[C@@H](NP(=O)(c1ccccc1)c1ccccc1)c1ccc(C(=O)OC)cc1`, the 50% effective concentration (EC50) is 2.14 µM. Next, `Cc1[nH]n2c(=O)cc(C(C)(C)C)nc2c1-c1ccccc1`: 2.77 µM.

For `O=C1C2=C(NC(=S)NC2c2ccc(Cl)cc2)NC(c2ccc(Cl)cc2)N1c1ccc(Cl)cc1` (configuration not stated), the concentration for a half-maximal effect (EC50) was 1.93 µM. Next, `CCC(CC)c1nn2c(N)c(/C=C3\C(C)=Nc4ccccc43)c(=O)nc2s1`: 2.57 µM; `Oc1ccccc1C(Nc1nccs1)c1ccc2cccnc2c1O` (configuration not stated): 4.35 µM; `Cc1nc2c(-c3ccccc3)c(C)[nH]n2c(=O)c1Cc1ccccc1`: 6.27 µM. In the case of `CCc1ccc(S(=O)(=O)/N=C2\C=C(Nc3ccc(C(=O)O)cc3)C(=O)c3ccccc32)cc1`, the half-maximal effective concentration (EC50) was 0.444 µM.

For `CCC(C)Sc1cc(-c2nc3ccc(C)cn3c2NCc2ccccc2)ccc1OC` (configuration not stated), the EC50 is 1.42 µM. Next, `COc1cnc(-c2ccccn2)nc1Sc1ccc(Cl)cc1`: 4.96 µM; `Cc1c(N/N=C(\C#N)C(=O)c2ccc(Cl)cc2)c(=O)n(-c2ccccc2)n1C`: 0.36 µM; `FC(F)(F)c1cc(Nc2ccccc2)nc(-c2ccccn2)n1`: 15.2 µM. Turning to `O=C(CSc1nnc(CNC(=O)c2ccc(F)cc2)o1)NCc1ccccc1`, the EC50 is > 15 µM (inactive). Next, `CCN1CCN(Cc2ccc(NC(=O)c3ccc(C)c(NC(=O)C(=O)c4c[nH]c5ccccc45)c3)cc2C(F)(F)F)CC1`: 3.34 µM. Next, `C/C(=N\Nc1nc2ccc(Cl)cc2o1)c1ccccc1`: 2.33 µM; `O=C(NNC(=S)NC(=O)c1ccccc1)c1ccc(O)cc1`: 2.26 µM. On to `O=c1c(O)c(-c2cccs2)oc2ccccc12`, for which the EC50 was 3.94 µM.

In the case of `O=C(NNC(=S)NC(=O)c1cccc([N+](=O)[O-])c1)c1ccc(Br)cc1`, the EC50 was 2.07 µM.

For `Cc1cc(/C=C2\SC(=S)N(C)C2=O)c(C)n1-c1ccc(O)cc1`, the EC50 is 2.09 µM. Next, `CCN(CC)c1ccc(-c2nn3c(-c4ccccc4OC)nnc3s2)cc1`: 6.21 µM; `Cc1ccc(NS(=O)(=O)c2ccc(Cl)c(NC(=S)NC(=O)C3CCCCC3)c2)cc1Cl`: 1.13 µM; `CC1CCN(c2nc(N3CCCCC3)nc(N3CCCCC3)n2)CC1`: 3.02 µM. For the molecule `CN1Cc2cc(C(=O)c3cc(Cl)cc(CSc4ncccn4)c3O)cnc2NC1=O`, the 50% effective concentration (EC50) is 9.39 µM. Next, `Cc1cccc2sc(NC(=O)c3ccc(NS(=O)(=O)c4cccs4)cc3)nc12`: 1.27 µM; `CCOC(=O)c1cnc(-n2nc(C)cc2C)nc1NC1CCCC1`: 2.58 µM. Next, `Cc1ccc(Nc2nc(N)nc(CN3CCN(c4ccccc4)CC3)n2)cc1Cl`: 13.2 µM; `O=S(=O)(Cc1nnnn1-c1ccccc1)c1ccc(F)cc1`: > 15 µM (inactive); `N#C/C(=N\Nc1ccc(S(=O)(=O)N2CCc3ccccc32)cc1)C(N)=S`: 11.3 µM.

In the case of `CCCCC[n+]1ccn(C2=C([O-])c3ccccc3C(=O)/C2=N\S(=O)(=O)c2ccccc2)c1`, the concentration giving a half-maximal response (EC50) is 2.58 µM. Next, `COc1ccc(/C=N/NC(=O)Cc2csc(Nc3cccc(C(F)(F)F)c3)n2)cc1C`: 3.95 µM; `Cc1ccccc1NC1=C/C(=N\S(=O)(=O)c2cccs2)c2ccccc2C1=O`: 1.44 µM; `COc1ccc2ccc3c(c2c1)N=C[C@]1(O3)N(C)c2ccccc2C1(C)C`: 1.41 µM.

Turning to `Cc1c(C(=O)NNC(=O)c2ccccc2O)oc2ccc(Br)cc12`, the EC50 is > 15 µM (inactive).

For `Cc1ccc(-c2cc(-c3ccccc3)nc(N(C)N)n2)cc1`, the EC50 was 6.06 µM.
